Data on 63 compounds can be found in the Kinase Knowledgebase extract (Sharma et al. 2016).

A word on the IC50: it is the point on the concentration scale where inhibition reaches its midpoint.

For this test, the target named is CDK2 (human) (UniProt P24941). In words: Enzyme Assay.
For the compound `C[C@H](O)CNC(=O)c1ccc(C(=O)Nc2ccc(-n3cncn3)cc2)s1`, the half-inhibitory concentration (IC50) is not below 40 µM.

Compound `O=C(Nc1ccc(-n2cncn2)cc1)c1ccc(C(=O)NC2CC2)s1` registered an IC50 not below 40 µM.

Regarding `CC(CN(C)C)NC(=O)c1ccc(C(=O)Nc2ccc(-n3cncn3)cc2)s1` (stereo not drawn), the IC50 was not below 40 µM.

Compound `Cc1cnc(CNC(=O)c2ccc(C(=O)Nc3ccc(-n4cncn4)cc3)s2)cn1` returned an IC50 not below 40 µM.

As to `Cc1cc(O)ccc1NC(=O)c1ccc(C(=O)Nc2ccc(-n3cncn3)cc2)s1`, the IC50 is not above 1 µM.

For the compound `O=C(Nc1ccc(-n2cncn2)c(F)c1)c1ccc(C(=O)Nc2ccccc2F)s1`, the IC50 is not above 1 µM.

As to `Cc1cc(N2CCOCC2)ccc1NC(=O)c1ccc(C(=O)Nc2ccc(-n3cncn3)c(F)c2)s1`, the IC50 was not above 1 µM.

With `O=C(Nc1ccc(-n2cncn2)c(F)c1)c1ccc(C(=O)NC2CCCCC2)o1`, the IC50 is not above 1 µM.

In turn, `COC(=O)c1ccc(NC(=O)c2ccc(C(=O)Nc3ccc(OC)cc3C)s2)cc1` gave an IC50 not below 40 µM.

Regarding `COc1ccc(NC(=O)c2ccc(C(=O)Nc3ccc(-n4cncn4)cc3F)s2)c(C)c1`, the IC50 is not below 40 µM.

`O=C(Nc1ccc(-n2cncn2)c(F)c1)c1ccc(C(=O)Nc2ccccc2-n2cccn2)s1` showed an IC50 not below 40 µM.

The compound `Cc1cc(Cn2ccnc2)ccc1NC(=O)c1ccc(C(=O)Nc2ccc(-n3cncn3)cc2)s1` returned an IC50 not above 1 µM.

`COc1ccc(NC(=O)c2ccc(C(=O)Nc3ccc(-n4cncn4)cc3)s2)c(C(=O)O)c1` registered a half-maximal inhibitory concentration (IC50) of 1 to 40 µM.

With `O=C(Nc1ccc(-n2cncn2)c(F)c1)c1ccc(C(=O)Nc2ccccc2Oc2ccccc2)s1`, the IC50 was not below 40 µM.

As for `Cc1cc(N(C)CCN(C)C)ccc1NC(=O)c1ccc(C(=O)Nc2ccc(-n3cncn3)cc2)s1`, the IC50 was not above 1 µM.

Consider `CN(C(=O)c1ccc(C(=O)Nc2ccc(-n3cncn3)cc2)s1)c1ccccc1`, for which the IC50 is not below 40 µM.

Compound `O=C(Nc1ccc(C(=O)Nc2ccc(-n3cncn3)cc2)s1)c1ccccc1` showed an IC50 not above 1 µM.

Consider `COc1ccc(NC(=O)c2ccc(C(=O)Nc3ccc(-c4ncn(C)n4)cc3)s2)c(C)c1`, for which the IC50 was not below 40 µM.

The compound `Cc1cc(N[C@H]2CCNC2)ccc1NC(=O)c1ccc(C(=O)Nc2ccc(-n3cncn3)c(F)c2)s1` had an IC50 not above 1 µM.

For `COc1ccc(C(=O)Nc2ccc(C(=O)Nc3ccc(-n4cncn4)cc3)s2)cc1`, the IC50 was in the range of 1 to 40 µM.

In the case of `CN1CCN(c2ccccc2NC(=O)c2ccc(C(=O)Nc3ccc(-n4cncn4)c(F)c3)s2)CC1`, the IC50 is not below 40 µM.

As to `O=C(NCCN1CCCCC1)c1ccc(C(=O)Nc2ccc(-n3cncn3)cc2)s1`, the IC50 was not below 40 µM.

`Cn1nc(-c2ccccc2)cc1NC(=O)c1ccc(C(=O)Nc2ccc(-n3cncn3)cc2)s1`: the IC50 lay within 1 to 40 µM.

For the compound `COc1ccc(C(=O)Nc2ccc(C(=O)N3CCC(c4ccncc4)C3)s2)c(C)c1` (stereo not drawn), the IC50 was not below 40 µM.

In turn, `CC(C)[C@@H](CO)NC(=O)c1ccc(C(=O)Nc2ccc(-n3cncn3)cc2)s1` came in with an IC50 not below 40 µM.

Compound `COc1cccc(C2CCN(C(=O)c3ccc(C(=O)Nc4ccc(-n5cncn5)cc4)s3)C2)c1` (stereo not drawn) displayed an IC50 not below 40 µM.

For the compound `O=C(Nc1ccccc1)c1ccc(C(=O)Nc2ccc(-n3cncn3)cc2)s1`, the IC50 is not below 40 µM.

In the case of `O=C(Nc1ccc(-n2cncn2)cc1)c1ccc(C(=O)NC2CCNCC2)s1`, the IC50 was not below 40 µM.

`O=C(Nc1ccc(-n2cncn2)cc1)c1ccc(C(=O)N2CCN(c3ccccc3)CC2)s1` yielded an IC50 not below 40 µM.

Compound `O=C(NCc1ccncc1)c1ccc(C(=O)Nc2ccc(-n3cncn3)cc2)s1` registered an IC50 not below 40 µM.

As for `COc1ccc(C(=O)Nc2ccc(C(=O)N3CCC(Oc4cnccn4)CC3)s2)c(C)c1`, the IC50 is 1 to 40 µM.

On to `C[C@H](NC(=O)c1ccc(C(=O)Nc2ccc(-n3cncn3)c(F)c2)o1)C1CCCCC1`, for which the IC50 was not above 1 µM.

`COc1ccc(NC(=O)c2ccc(C(=O)Nc3ccc(N(C)C)cc3)s2)c(C)c1` came in with an IC50 not below 40 µM.

With `COc1ccc(NC(=O)c2ccc(C(=O)Nc3ccc(-n4cncn4)cc3)s2)cc1OC`, the half-maximal inhibitory concentration (IC50) was not below 40 µM.

In the case of `COc1ccc(NC(=O)c2ccc(C(=O)Nc3ccc4sc(SC)nc4c3)s2)c(C)c1`, the IC50 was not below 40 µM.

For the compound `COc1ccc(NC(=O)c2ccc(C(=O)N3CCC(c4ccncc4)C3)s2)c(C)c1` (stereo not drawn), the IC50 was 1 to 40 µM.

As to `O=C(Nc1ccc(-n2cncn2)cc1)c1ccc(C(=O)Nc2ccc3c(c2)C(=O)OC3)s1`, the IC50 was not below 40 µM.

In turn, `O=C(Nc1ccc(-n2cncn2)c(F)c1)c1ccc(C(=O)N[C@H]2CC[C@H](O)CC2)o1` had an IC50 of 1 to 40 µM.

As to `O=C(Nc1ccc(-n2cncn2)cc1)c1ccc(C(=O)Nc2nc3c(s2)CCCC3)s1`, the IC50 lay in the range of 1 to 40 µM.

`CN(Cc1ccco1)C(=O)c1ccc(C(=O)Nc2ccc(-n3cncn3)cc2)s1` yielded an IC50 not below 40 µM.

`COc1ccc(C(=O)Nc2ccc(C(=O)N3CCC(c4ccccn4)C3)s2)c(C)c1` (stereo not drawn) came in with an IC50 not below 40 µM.

As to `COc1ccc(NC(=O)c2ccc(C(=O)Nc3ccc(-n4cncn4)cc3)s2)cc1F`, the IC50 was not below 40 µM.

For `O=C(Nc1ccc(-n2cncn2)cc1)c1ccc(C(=O)NC2CCCCC2)s1`, the IC50 was not below 40 µM.

In turn, `O=C(NCCc1ccccn1)c1ccc(C(=O)Nc2ccc(-n3cncn3)cc2)s1` returned an IC50 not below 40 µM.

`COc1ccc(NC(=O)c2ccc(C(=O)Nc3ccc(-c4cnco4)cc3)s2)c(C)c1` showed a 50% inhibitory concentration (IC50) not below 40 µM.

Compound `O=C(Nc1ccc(-n2cncn2)cc1)c1ccc(C(=O)NC2CCCCC2)o1` gave an IC50 not above 1 µM.

Compound `O=C(NCCN1CCOCC1)c1ccc(C(=O)Nc2ccc(-n3cncn3)cc2)s1` returned an IC50 not below 40 µM.

In turn, `Cc1cc(NC(=O)c2ccc(C(=O)Nc3ccc(-n4cncn4)cc3)s2)ccc1F` came in with an IC50 not below 40 µM.

Regarding `O=C(Nc1ccc(-n2cncn2)cc1)c1ccc(C(=O)Nc2cc(F)ccc2F)s1`, the IC50 is not below 40 µM.

With `CN(C)CCNC(=O)c1ccc(C(=O)Nc2ccc(-n3cncn3)cc2)s1`, the IC50 is not below 40 µM.

For `CN1CCN(C(=O)c2ccc(C(=O)Nc3ccc(-n4cncn4)cc3)s2)CC1`, the IC50 is not below 40 µM.

For `COc1ccc(NC(=O)c2ccc(C(=O)Nc3ccc(N4CCNCC4)cc3)s2)c(C)c1`, the IC50 was not below 40 µM.

`COc1ccc(NC(=O)c2ccc(C(=O)Nc3ccc(-n4cncn4)cc3)s2)cc1Cl`: the IC50 was in the range of 1 to 40 µM.

In turn, `O=C(Nc1ccc(-n2cncn2)cc1)c1ccc(C(=O)Nc2cccc(Cl)c2)s1` gave a half-maximal inhibitory concentration (IC50) of 1 to 40 µM.

`O=C(Nc1ccc(C(=O)Nc2ccc(-n3cncn3)cc2)s1)c1ccncc1`: the IC50 is not below 40 µM.

Turning to `O=C(Nc1ccc(-n2cncn2)cc1)c1ccc(C(=O)Nc2ccccn2)s1`, the IC50 was not below 40 µM.

For `CN(C)CCNC(=O)c1ccc(C(=O)Nc2ccc(-n3cncn3)c(F)c2)o1`, the IC50 is not below 40 µM.

`Cc1ccsc1CNC(=O)c1ccc(C(=O)Nc2ccc(-n3cncn3)cc2)s1` returned an IC50 of 1 to 40 µM.

`O=C(Nc1ccc(-n2cncn2)c(F)c1)c1ccc(C(=O)Nc2ccccc2N2CCOCC2)s1` yielded an IC50 not below 40 µM.

`CC(C)NC(=O)c1ccc(C(=O)Nc2ccc(-n3cncn3)cc2)s1`: the IC50 was not below 40 µM.

Consider `Cn1nc(-c2ccc(Cl)cc2)cc1NC(=O)c1ccc(C(=O)Nc2ccc(-n3cncn3)cc2)s1`, for which the 50% inhibitory concentration (IC50) was not below 40 µM.

In the case of `O=C(Nc1ccc(-n2cncn2)cc1)c1ccc(C(=O)N[C@@H]2CCc3ccccc32)s1`, the IC50 is not below 40 µM.

Compound `COc1ccc(NC(=O)c2ccc(C(=O)Nc3ccc(-n4ccnc4)cc3)s2)c(C)c1` came in with an IC50 not below 40 µM.
